Measured values as given in patent publication US8796244B2, “Imidazopyridine derivatives as inhibitors of receptor tyrosine kinases” (Astex Therapeutics Ltd, priority 2008, dated 2014).
Where a name gives a salt, the structure may show the parent alone. Read-outs that look alike come from different tables or passages of the source. Blank lines part the entries; values can stand above or below the molecule they belong to.

What was measured:
[1] = test system: parental wild-type Ba/F3 cells; test: Ba/F3 (WT) cell proliferation assay (Alamar Blue); assay type: cell-based; settings: Mus musculus
[2] = molecular target: FGFR3 (Homo sapiens (Human), UniProt P22607); test: FGFR3 in vitro kinase inhibitory activity assay (TRF)
[3] = molecular target: VEGFR2 (Homo sapiens (Human), UniProt P35968); test: VEGFR2 in vitro kinase inhibitory activity assay (TRF, Flt3 substrate); assay type: biochemical
[4] = test system: Ba/F3-TEL-FGFR3 cells; test: Ba/F3-TEL-FGFR3 cell proliferation assay (Alamar Blue); assay type: cell-based
[5] = test system: LP-1 cell line (FGF-1/Heparin induced pERK); test: Cell-based pERK ELISA, LP-1 cells; settings: Homo sapiens, LP-1, read-out: LP-1 pERK ELISA (μM)
[6] = BaF3, read-out: BaF3 WT prolif, % inhibition
[7] = BaF3, 72 hours, Alamar Blue, read-out: BaF3 WT prolif
[8] = 72 hours, Alamar Blue, read-out: BaF3-TEL-FGFR3 prolif
[9] = BaF3, at 10 μM, read-out: BaF3 WT prolif, % inhibition
[10] = 72 h, read-out: BaF3-TEL-FGFR3 prolif (μM)
[11] = BaF3, 72 h, read-out: BaF3 WT prolif (μM)

Chain of VEGFR2 (P35968 20-1356): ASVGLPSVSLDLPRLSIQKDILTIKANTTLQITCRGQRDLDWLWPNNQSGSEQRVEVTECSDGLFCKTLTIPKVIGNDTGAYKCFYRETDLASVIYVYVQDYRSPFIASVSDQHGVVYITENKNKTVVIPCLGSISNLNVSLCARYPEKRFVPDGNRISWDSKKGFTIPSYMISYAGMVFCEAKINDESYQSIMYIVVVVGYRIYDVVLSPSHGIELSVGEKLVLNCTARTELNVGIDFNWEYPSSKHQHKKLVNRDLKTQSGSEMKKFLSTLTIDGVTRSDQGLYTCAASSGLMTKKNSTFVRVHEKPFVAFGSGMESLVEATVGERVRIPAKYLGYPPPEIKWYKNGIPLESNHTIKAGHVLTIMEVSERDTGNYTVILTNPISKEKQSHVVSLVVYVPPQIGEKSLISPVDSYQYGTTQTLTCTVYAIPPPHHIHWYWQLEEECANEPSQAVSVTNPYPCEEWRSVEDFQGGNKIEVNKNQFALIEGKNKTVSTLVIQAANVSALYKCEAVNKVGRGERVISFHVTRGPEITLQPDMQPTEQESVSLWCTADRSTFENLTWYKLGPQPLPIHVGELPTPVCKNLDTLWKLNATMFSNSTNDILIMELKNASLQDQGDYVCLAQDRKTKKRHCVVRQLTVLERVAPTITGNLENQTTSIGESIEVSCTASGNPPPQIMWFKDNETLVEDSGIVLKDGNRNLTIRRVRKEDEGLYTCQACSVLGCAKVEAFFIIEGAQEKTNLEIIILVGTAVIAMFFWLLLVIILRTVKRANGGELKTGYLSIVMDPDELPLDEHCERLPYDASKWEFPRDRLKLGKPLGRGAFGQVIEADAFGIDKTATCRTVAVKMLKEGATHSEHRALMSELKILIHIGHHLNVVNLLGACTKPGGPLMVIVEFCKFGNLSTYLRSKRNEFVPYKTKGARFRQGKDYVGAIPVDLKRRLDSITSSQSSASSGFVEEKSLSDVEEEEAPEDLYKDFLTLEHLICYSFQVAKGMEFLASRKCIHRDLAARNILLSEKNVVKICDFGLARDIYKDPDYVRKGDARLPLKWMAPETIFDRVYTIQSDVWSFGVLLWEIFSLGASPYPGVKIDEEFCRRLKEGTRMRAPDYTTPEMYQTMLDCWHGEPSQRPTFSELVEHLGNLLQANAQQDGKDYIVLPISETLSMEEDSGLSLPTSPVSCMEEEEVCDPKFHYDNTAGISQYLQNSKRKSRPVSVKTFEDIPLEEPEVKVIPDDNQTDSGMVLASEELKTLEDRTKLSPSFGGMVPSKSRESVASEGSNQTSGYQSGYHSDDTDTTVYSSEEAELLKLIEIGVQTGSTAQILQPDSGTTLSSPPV
Chain of FGFR3 (P22607 23-806): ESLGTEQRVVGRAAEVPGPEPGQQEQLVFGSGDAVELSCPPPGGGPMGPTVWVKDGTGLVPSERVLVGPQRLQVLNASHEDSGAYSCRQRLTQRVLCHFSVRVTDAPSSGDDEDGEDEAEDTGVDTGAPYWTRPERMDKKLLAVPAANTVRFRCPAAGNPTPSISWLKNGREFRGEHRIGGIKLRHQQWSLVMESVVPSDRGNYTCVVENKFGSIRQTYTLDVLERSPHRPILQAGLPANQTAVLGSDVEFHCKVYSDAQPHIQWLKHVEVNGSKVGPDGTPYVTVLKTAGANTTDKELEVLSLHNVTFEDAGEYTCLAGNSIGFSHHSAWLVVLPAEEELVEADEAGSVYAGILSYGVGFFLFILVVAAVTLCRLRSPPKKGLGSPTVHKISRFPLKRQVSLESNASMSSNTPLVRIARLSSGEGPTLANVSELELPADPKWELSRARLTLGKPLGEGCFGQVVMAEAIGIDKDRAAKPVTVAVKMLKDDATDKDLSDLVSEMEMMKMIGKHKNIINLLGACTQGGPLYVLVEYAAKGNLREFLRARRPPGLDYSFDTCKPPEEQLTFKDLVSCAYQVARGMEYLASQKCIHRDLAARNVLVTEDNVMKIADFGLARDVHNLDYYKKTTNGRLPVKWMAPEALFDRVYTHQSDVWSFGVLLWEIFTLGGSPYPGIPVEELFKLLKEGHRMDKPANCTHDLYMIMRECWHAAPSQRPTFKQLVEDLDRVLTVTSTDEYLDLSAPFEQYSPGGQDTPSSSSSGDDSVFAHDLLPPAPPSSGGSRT

SMILES: O=C(NCC(F)(F)F)Nc1cccc(-c2cnc3cc(-c4nccc(N5CCNCC5)n4)ccn23)c1 (as salt: HCl) (hydrate or solvate) [Compound 269]
melting point: 200 °C

SMILES: Nc1nc(-c2ccn3c(-c4cccc(NC(=O)NCC(F)(F)F)c4)cnc3c2)ncc1C(=O)O (as salt: HCl) (hydrate or solvate) [Compound 277]
melting point: > 260 °C

SMILES: Cc1nnc(-c2ccn3c(-c4cccc(NC(=O)NC5CC5)c4)cnc3c2)o1 [Compound 157B]
melting point: 229.6 °C

SMILES: O=C(NCC(F)(F)F)Nc1cc(F)cc(-c2cnc3cc(-c4ccnc(C(F)(F)F)n4)ccn23)c1 [Compound 251]
inhibition at 10 µM [1, 6]: 0%
melting point: 263 °C

SMILES: N#Cc1ccc(-c2ccn3c(-c4cccc(NC(=O)NCC(F)(F)F)c4)cnc3c2)nn1 [Compound 255]
inhibition at 10 µM [1, 6]: 0%
melting point: 267 °C

SMILES: CN(C)Cc1cnc(-c2ccn3c(-c4cccc(NC(=O)NCC(F)(F)F)c4)cnc3c2)nc1N [Compound 260]
inhibition at 1 µM [1, 6]: 0%
melting point: 130 °C

SMILES: Nc1nnc(-c2ccn3c(-c4cccc(NC(=O)NCC(F)(F)F)c4)cnc3c2)s1 [Compound 261]
inhibition at 10 µM [1, 6]: 0%
melting point: > 260 °C

SMILES: CCNc1nnc(-c2ccn3c(-c4cccc(NC(=O)NCC(F)(F)F)c4)cnc3c2)s1 [Compound 286]
inhibition at 3 µM ([4]; read-out: BaF3-TEL-FGFR3 prolif, % inhibition): 55%
inhibition at 10 µM [1, 6]: 0%
inhibition at 0.0003 µM ([2]; 3 h, read-out: FGFR3 % I): 57%

SMILES: COCCNc1nnc(-c2ccn3c(-c4cccc(NC(=O)NCC(F)(F)F)c4)cnc3c2)s1 [Compound 288]
IC50 [4, 8]: 0.035 µM
inhibition at 10 µM [1, 6]: 7.8%
inhibition at 0.0003 µM ([2]; 3 h, read-out: FGFR3 % I): 54%

SMILES: CC(C)(CO)n1cc(-c2ccn3c(-c4cccc(NC(=O)NCC(F)(F)F)c4)cnc3c2)cn1 [Example 10, 1-(3-{7-[1-(2-Hydroxy-1,1-dimethylethyl)-1H-pyrazol-4-yl]-imidazo[1,2-a]pyridin-3-yl}phenyl)-3-(2,2,2-trifluoroethyl)urea]
IC50 [4, 8]: 0.3 µM
IC50 [1, 7]: 2.3 µM
IC50 [5]: 0.047 µM
inhibition at 0.001 µM ([2]; 3 h, read-out: FGFR3 % I): 50%

SMILES: CC(C)(C)OC(=O)N1CCC(n2cc(-c3ccn4c(-c5cncc(NC(=O)NCC(F)(F)F)c5)cnc4c3)cn2)CC1 [Example 55, 4-[4-(3-{5-[3-(2,2,2-Trifluoro-ethyl)-ureido]-pyridin-3-yl}-imidazo[1,2-a]pyridin-7-yl)-pyrazol-1-yl]-piperidine-1-carboxylic acid tert-butyl ester]
inhibition at 0.0003 µM ([2]; 3 h, read-out: FGFR3 % I): 38%

SMILES: CC(=O)N1CCC(n2cc(-c3ccn4c(-c5cccc(NC(=O)NCC(F)(F)F)c5)cnc4c3)cn2)CC1 [Example 63, 1-(3-{7-[1-(1-Acetyl-piperidin-4-yl)-1H-pyrazol-4-yl]-imidazo[1,2-a]pyridin-3-yl}-phenyl)-3-(2,2,2-trifluoro-ethyl)-urea formate]
IC50 [4, 10]: 0.092 µM
IC50 [1, 11]: 1.4 µM
IC50 [5]: 0.05 µM
inhibition at 0.0003 µM ([2]; 3 h, read-out: FGFR3 % I): 50.5%

SMILES: O=C(NCC(F)(F)F)Nc1cccc(-c2cnc3cc(-c4ccc(NC5CCOCC5)nn4)ccn23)c1 [Example 66, 1-(3-{7-[6-(Tetrahydro-pyran-4-ylamino)-pyridazin-3-yl]-imidazo[1,2-a]pyridin-3-yl}-phenyl)-3-(2,2,2-trifluoro-ethyl)-urea bis-hydrochloride]
IC50 [4, 10]: 0.046 µM
IC50 [1, 11]: 1.9 µM
IC50 [5]: 0.069 µM
inhibition at 0.0003 µM ([2]; 3 h, read-out: FGFR3 % I): 43%

SMILES: CC(C)(C(=O)N1CCC1)n1cc(-c2ccn3c(-c4cccc(NC(=O)NCC(F)(F)F)c4)cnc3c2)cn1 [Example 73, 1-(3-{7-[1-(2-Azetidin-1-yl-1,1-dimethyl-2-oxo-ethyl)-1H-pyrazol-4-yl]-imidazo[1,2-a]pyridin-3-yl}-phenyl)-3-(2,2,2-trifluoro-ethyl)-urea]
IC50 [4, 8]: 0.13 µM
IC50 [1, 7]: 3.7 µM
IC50 [5]: 0.12 µM
inhibition at 0.001 µM ([2]; 3 h, read-out: FGFR3 % I): 60%

SMILES: O=C(NCC(F)(F)F)Nc1cccc(-c2cnc3cc(-c4ccc(O)cn4)ccn23)c1 [Example 202]
IC50 [4, 8]: 0.26 µM
inhibition at 1 µM [1, 6]: 21%
inhibition at 0.001 µM ([2]; 3 h, read-out: FGFR3 % I): 46%

SMILES: CNC(=O)c1ccc(-c2ccn3c(-c4cccc(NC(=O)NCC(F)(F)F)c4)cnc3c2)nc1 [Example 224]
IC50 [4, 8]: 0.033 µM
inhibition at 3 µM [1, 6]: 16%
inhibition at 0.001 µM ([2]; 3 h, read-out: FGFR3 % I): 61%

SMILES: CCNC(=O)Nc1cccc(-c2cnc3cc(-c4nnc(C(F)(F)F)s4)ccn23)c1 [Example 236]
inhibition at 0.31 µM ([2]; 3 h, read-out: FGFR3 % I): 46%

Further lines, with some results ahead:

melting point: 205 °C
SMILES: O=C(Nc1cccc(-c2cnc3cc(-c4nncs4)ccn23)c1)NC1CC1 [Compound 158B]

melting point: 161 °C
SMILES: N#Cc1cnc(-c2ccn3c(-c4cccc(NC(=O)NCC(F)(F)F)c4)cnc3c2)nc1N [Compound 165B]

melting point: 210 °C
SMILES: N#Cc1ccnc(-c2ccn3c(-c4cccc(NC(=O)NCC(F)(F)F)c4)cnc3c2)n1 [Compound 253]
IC50 [1, 7]: 1.8 µM

melting point: 146 °C
SMILES: CC(C)(O)c1cnc(-c2ccn3c(-c4cccc(NC(=O)NCC(F)(F)F)c4)cnc3c2)nc1 [Compound 257]
IC50 [1, 7]: 3.9 µM

melting point: 195 °C
SMILES: Nc1nc(-c2ccn3c(-c4cccc(NC(=O)NCC(F)(F)F)c4)cnc3c2)ncc1CN1CCC1 [Compound 259]
IC50 [1, 7]: 2.6 µM

inhibition at 0.1 µM ([2]; 3 h, read-out: FGFR3 % I): 42%
SMILES: Nc1nc(-c2ccn3c(-c4cc(NC(=O)NCC(F)(F)F)cc(OC5CCCC5)c4)cnc3c2)ncc1F [Compound 281]
IC50 [1, 7]: 1.4 µM

IC50 [3]: > 10 µM
IC50 ([2]; read-out: FGFR3 IC50, […]): > 1 µM
SMILES: Cc1ccc(NC(=O)NCC(F)(F)F)cc1-c1cnc2cc(-c3ncc(F)c(N)n3)ccn12 [Compound 283]

inhibition at 3 µM ([3]; 1 h, read-out: VEGFR2 % I): 59%
inhibition at 0.1 µM ([2]; 3 h, read-out: FGFR3 % I): 55%
SMILES: COc1cc(NC(=O)NCC(F)(F)F)cc(-c2cnc3cc(-c4ncccn4)ccn23)c1 [Compound 304]

inhibition at 1 µM ([3]; 1 h, at 1 μM, read-out: VEGFR2 % I): 58%
inhibition at 0.03 µM ([2]; 3 h, read-out: FGFR3 % I): 39%
SMILES: COC(=O)c1cc(NC(=O)NCC(F)(F)F)cc(-c2cnc3cc(-c4ccnc(C(F)(F)F)n4)ccn23)c1 [Compound 307]
inhibition at 10 µM ([4]; at 10 μM, read-out: BaF3-TEL-FGFR3 prolif, % inhibition): 25%
inhibition at 10 µM [1, 9]: 0%

IC50 [3]: > 3 µM
inhibition at 0.3 µM ([2]; 3 h, read-out: FGFR3 % I): 36%
SMILES: N#CCc1cc(NC(=O)NCC(F)(F)F)cc(-c2cnc3cc(-c4ccnc(C(F)(F)F)n4)ccn23)c1 [Compound 310]

IC50 [4, 8]: 0.021 µM
inhibition at 0.0003 µM ([2]; 3 h, read-out: FGFR3 % I): 36%
SMILES: CC(C)(O)c1ccc(-c2ccn3c(-c4cccc(NC(=O)NCC(F)(F)F)c4)cnc3c2)cc1 [Compound 321]
IC50 [1, 7]: 0.46 µM

IC50 [4, 8]: 0.027 µM
inhibition at 0.00097 µM ([2]; 3 h, read-out: FGFR3 % I): 66%
SMILES: NC1CCN(c2ccc(-c3ccn4c(-c5cccc(NC(=O)NCC(F)(F)F)c5)cnc4c3)cn2)CC1 [Compound 330]
IC50 [1, 7]: 0.56 µM

inhibition at 3 µM ([3]; 1 h, read-out: VEGFR2 % I): 43%
IC50 [4, 8]: 1.6 µM
inhibition at 0.03 µM ([2]; 3 h, read-out: FGFR3 % I): 42%
SMILES: CCCCCOC(=O)Nc1nc(-c2ccn3c(-c4cccc(NC(=O)NCC(F)(F)F)c4)cnc3c2)ncc1F [Compound 331]
inhibition at 10 µM [1, 9]: 60%

IC50 [4, 8]: 0.42 µM
IC50 [5]: 0.63 µM
inhibition at 0.001 µM ([2]; 3 h, read-out: FGFR3 % I): 58%
SMILES: O=C(NCC(F)(F)F)Nc1cccc(-c2cnc3cc(-c4ccc(N5CCNCC5)nn4)ccn23)c1 [Example 23, 1-{3-[7-(6-Piperazin-1-ylpyridazin-3-yl)-imidazo[1,2-a]pyridin-3-yl]phenyl}-3-(2,2,2-trifluoroethyl)urea trifluoroacetate]
inhibition at 10 µM [1, 9]: 0%

IC50 [4, 8]: 0.029 µM
IC50 [5]: 0.021 µM
inhibition at 0.0003 µM ([2]; 3 h, read-out: FGFR3 % I): 39%
SMILES: CC(C)N1CCC(n2cc(-c3ccn4c(-c5cccc(NC(=O)NCC(F)(F)F)c5)cnc4c3)cn2)CC1 [Example 50, 1-(3-{7-[1-(1-Isopropylpiperidin-4-yl)-1H-pyrazol-4-yl]imidazo[1,2-a]pyridin-3-yl}-phenyl)-3-(2,2,2-trifluoroethyl)urea hydrochloride]
IC50 [1, 7]: 0.71 µM

IC50 [4, 8]: 0.096 µM
IC50 [5]: 0.018 µM
inhibition at 0.0003 µM ([2]; 3 h, read-out: FGFR3 % I): 51.5%
SMILES: CS(=O)(=O)N1CCC(n2cc(-c3ccn4c(-c5cccc(NC(=O)NCC(F)(F)F)c5)cnc4c3)cn2)CC1 [Example 74, 1-(3-{7-[1-(1-Methanesulfonyl-piperidin-4-yl)-1H-pyrazol-4-yl]-imidazo [1,2-a]pyridin-3-yl}-phenyl)-3-(2,2,2-trifluoro-ethyl)-urea]
IC50 [1, 7]: 0.82 µM

inhibition at 0.3 µM ([2]; 3 h, read-out: FGFR3 % I): 49%
SMILES: Cc1noc(C)c1C#Cc1ccn2c(-c3cccc(NC(=O)NCC(F)(F)F)c3)cnc2c1 [Example 112, 1-{3-[7-(3,5-Dimethyl-isoxazol-4-ylethynyl)-imidazo[1,2-a]pyridin-3-yl]-phenyl}-3-(2,2,2-trifluoro-ethyl)-urea trifluoroacetate]

IC50 [4, 8]: 0.076 µM
inhibition at 0.00097 µM ([2]; 3 h, read-out: FGFR3 % I): 66%
SMILES: CNc1cc(-c2ccn3c(-c4cccc(NC(=O)NCC(F)(F)F)c4)cnc3c2)ncn1 [Example 195]
IC50 [1, 7]: 5 µM

IC50 [3]: > 10 µM
IC50 [4, 8]: 8.8 µM
inhibition at 0.1 µM ([2]; 3 h, read-out: FGFR3 % I): 39%
SMILES: O=C(NCC(F)(F)F)Nc1cccc(-c2cnc3cc(-c4ccnc(-n5ccnc5)n4)ccn23)c1 [Example 215]
IC50 [1, 7]: 10 µM

inhibition at 0.3 µM ([3]; 1 h, at 0.3 μM, read-out: VEGFR2 % I): 59%
IC50 [4, 8]: 0.32 µM
inhibition at 0.03 µM ([2]; 3 h, read-out: FGFR3 % I): 67%
SMILES: O=C(NCC(F)(F)F)Nc1cccc(-c2cnc3cc(-c4ccc(C(F)(F)F)nn4)ccn23)c1 [Example 229]
IC50 [1, 7]: 5.5 µM

IC50 [4, 8]: 0.09 µM
inhibition at 0.003 µM ([2]; 3 h, read-out: FGFR3 % I): 49%
SMILES: CCNC(=O)Nc1cccc(-c2cnc3cc(-c4ncc(OC)cn4)ccn23)c1 [Example 230]
IC50 [1, 7]: 0.16 µM

IC50 [4, 8]: 0.045 µM
inhibition at 0.001 µM ([2]; 3 h, read-out: FGFR3 % I): 45%
SMILES: O=C(NCC(F)(F)F)Nc1cccc(-c2cnc3cc(-c4cnc(C(F)(F)F)nc4)ccn23)c1 [Example 232]
IC50 [1, 7]: 0.6 µM
